Laboratory results published in patent publication US20240066006A1, “Antiviral Compounds and Applications Thereof” (priority 2020, published 2024).
Like-named read-outs stand apart in the source and are kept apart here.

How the values were obtained:
MHV-1 [1] = assay: Viral titer by plaque assay, DBT cells infected with MHV-1; type: cell-based, murine hepatitis virus
MHV-1 [2] = assay: Syncytium formation in DBT cells infected with MHV-1 (microscopy images); type: cell-based, murine hepatitis virus; conditions: for inhibitory effect on syncytium formation and cell-cell fusion / inhibitory effect on syncytium formation and fusion: DBT cells pre-treated three hours, 893 10 μM, images at 48 hours; for inhibitory effect on syncytium formation and cell-cell fusion: NAV2729 5 μM, SecinH3 30 μM; for inhibitory effect on syncytium formation and fusion: YM201636 400 nM, apilimod 50 nM; for syncytium formation induced by MHV-1: DBT cells, 4 μM
MHV-A59 [3] = type: cell-based, murine hepatitis virus; conditions: DBT cells, MOI 0.1, plaque assay at 24 or 48 hours
MHV-A59 [4] = assay: Syncytium formation in DBT cells infected with MHV-A59 (phase contrast microscopy); type: cell-based, murine hepatitis virus; conditions: 4 μM, MOI 0.1, 24 hours post infection
Procedure: To determine whether PP2A activation mitigates syncytium formation induced by coronaviruses, DBT cells were treated with 4 μM of compound 893 before or after infection with MHV-A59 at a multiplicity of infection (MOI) of 0.1 and then assessed for syncytium formation via phase contrast microscopy 24 hours post infection.

ACE2 receptor = type: cell-based; conditions: pre-treated VeroE6 cells
Serum protein binding = type: in vitro ADME
[5] = tested on: endolysosomal trafficking; assay: Inhibition of endolysosomal trafficking in vitro; type: cell-based
[6] = in vivo
in vivo = conditions: po
[7] = Pharmacokinetics and tissue levels upon oral administration
MHV-1 [8] = assay: MHV-1 intranasal infection of male A/J mice, lung viral titer and lung weight; conditions: 120 mg/kg by gavage 6 hours prior to and 18 hours after infection, 500 pfu MHV-1 intranasally, 24 hours post-infection
[9] = DBT cells pre-treated three hours, 893 10 μM, NAV2729 5 μM, SecinH3 30 μM, plaque assay 48 hours post infection
[10] = after viral infection (post-treatment)

In the case of `OCCN1CCN(CCCN2c3ccccc3Sc3ccc(Cl)cc32)CC1` [PPZ, perphenazine, reference compound], the “reduction of viral titers of MHV-1” value (MHV-1 [1]; DBT cells, pretreatment with PP2A agonist) was “to a degree similar to that of compound 893” and the “syncytium formation and fusion” value (MHV-1 [2]; DBT cells infected with MHV-1, pretreatment with PP2A agonist) was “as efficiently as compound 893”.

In the case of `COc1nc(-c2ccc3c(c2)OCO3)n(-c2ccc(NC(=O)CSc3ccccc3)cc2)n1` [SecinH3, reference compound], the “reduction of viral titers of MHV-1” value (MHV-1 [1]; [9]) was “about 1 log” and the “inhibitory effect on syncytium formation and cell-cell fusion” value (MHV-1 [2]) was “inhibitory effect”.

With `Nc1ccc(C(=O)Nc2cccc(-c3nc(N4CCOCC4)c4oc5ncccc5c4n3)c2)cn1` [YM201636] the “inhibitory effect on syncytium formation and fusion” value (MHV-1 [2]) was “inhibitory effect”.

In the case of `Cc1cccc(/C=N/Nc2cc(N3CCOCC3)nc(OCCc3ccccn3)n2)c1` [apilimod], the “inhibitory effect on syncytium formation and fusion” value (MHV-1 [2]) was “inhibitory effect”.

In the case of `CCCCCCCCc1ccc([C@H]2CCN[C@@H]2CO)cc1.Cl` [compound 893], the “reduction of viral titers of MHV-1” value (MHV-1 [1]; [9]) was about 3 log, the “reduction of viral titers of MHV-1” value (MHV-1 [1]; DBT cells pre-treated three hours, 893 10 μM, YM201636 400 nM, apilimod 50 nM, plaque assay 48 hours post infection) was about 3 logs and the “reduction of viral titers of MHV-1” value (MHV-1 [1]; DBT cells, 4-5 μM added one hour after infection, MOI 0.1, plaque assay at 24 or 48 hours) was 3-4 logs. The “reduction of viral titers of MHV-1” value (MHV-1 [1]; DBT cells, 4-5 μM for three hours prior to infection, MOI 0.1, washed 1 hour after infection, plaque assay at 24 or 48 hours) was 3-4 logs, the “reduction of viral titers of MHV-A59” value (MHV-A59 [3]; 4-5 μM added one hour after infection) was 3-4 logs and the “reduction of viral titers of MHV-A59” value (MHV-A59 [3]; 4-5 μM for three hours prior to infection, washed 1 hour after infection) was 3-4 logs. For the same molecule, the “syncytium formation induced by MHV-A59” value (MHV-A59 [4]; [10]) was “potently prevented syncytium formation”, the “syncytium formation induced by MHV-A59” value (MHV-A59 [4]; pre-treatment) was “potently prevented syncytium formation” and the “inhibitory effect on syncytium formation and cell-cell fusion” value (MHV-1 [2]) was “inhibitory effect”. For the same molecule, the “inhibitory effect on syncytium formation and fusion” value (MHV-1 [2]) was “greater for 893 than for YM201636 or apilimod”, the “syncytium formation induced by MHV-1” value (MHV-1 [2]; [10]) was “potently prevented syncytium formation” and the “syncytium formation induced by MHV-1” value (MHV-1 [2]; pre-treatment) was “potently prevented syncytium formation”. The “ACE2 receptor localization at the outer cell membrane” value (ACE2 receptor) was “reduction of ACE2 receptor localization at the outer cell membrane”, the resistance to metabolism (Resistance to metabolism) was “resistant to metabolism” and the “binding by serum proteins” value (Serum protein binding) was “highly bound by serum proteins”. The “concentration required to inhibit endolysosomal trafficking” value [5] was 1 to 10 µM, the oral bioavailability [6] was “orally bioavailable” and the half-life (in vivo) was 10.6 h. For the same molecule, the “total drug levels in the lungs relative to concentration required in vitro” value ([7]; compared with 1-10 μM required in vitro) was 300 fold, the concentration at 5 days ([7]; lungs, brain, liver (many tissues), po, 120 mg/kg) was over 100 µM and the lung weight (MHV-1 [8]) was “reduced lung weight”. For the same molecule, the “reduction in infectious virus within the lungs” value (MHV-1 [8]) was 2 log.

With NAV2729 [reference compound] the “reduction of viral titers of MHV-1” value (MHV-1 [1]; [9]) was “about 1 log” and the “inhibitory effect on syncytium formation and cell-cell fusion” value (MHV-1 [2]) was “inhibitory effect”.
